In patent publication US4977173A, “Aminomethyl oxooxazolidinyl ethenylbenzene derivatives useful as antibacterial agents” (E. I. Du Pont de Nemours and Company, priority 1989, dated 1990):
In brackets after ≈: the same amount, converted by molar mass. Read-outs that look alike come from different tables or passages of the source.

Assays:
[1] = test system: Staphylococcus aureus; experiment: In vivo activity against Staphylococcus aureus in an acute lethal mouse model; details: mice infected intraperitoneally, dosed one and four hours post-infection, survival on seventh day
Method: Determinations of in vivo efficacy are performed by inoculating mice intraperitoneally with cultures of the infecting organism diluted to produce 100% mortality in control animals within twenty-four hours. The culture of S. aureus used to infect the animals was diluted to the required bacterial density using 5% aqueous hog gastric mucin. The compounds are dissolved or suspended in 0.25% aqueous Methocel® (Methocel®: Hydroxypropyl Methylcellulose, E15 Premium, Dow Chemical Company) for oral administration or sterile distilled water containing 5% dimethylsulfoxide (Fisher Scientific Company, Fairlawn, N.J.) for subcutaneous administration. The mice are dosed at one hour and at four hours post-infection. Mortality is recorded daily until test termination seven days post infection. The number of survivors in each treatment group on the seventh day after infection is used in the calculation of the ED50, the dose of compound that protects 50% of the mice (Litchfield, J. T. and Wildoxon. A simplified method for evaluating dose-effect experiments. J. Pharmacol Exp. Ther., 96:99-113, 1949).

[2] = test system: Staphylococcus aureus; experiment: In vitro broth microdilution minimal inhibitory concentration (24-hour MIC), Staphylococcus aureus; assay type: cell-based; details: Mueller-Hinton broth, standard microdilution; for MIC: read-out: Minimum Inhibitory Concentration
Description: (§1) As shown in Table VII compounds of formula I exert an in vitro antibacterial effect.

[3] = test system: Escherichia coli; experiment: In vitro broth microdilution minimal inhibitory concentration (24-hour MIC), Escherichia coli; assay type: cell-based; details: Mueller-Hinton broth, standard microdilution; for MIC: read-out: Minimum Inhibitory Concentration
Description: as §1

[4] = Staphylococcus aureus, 168 h, Oral Administration, read-out: ED50
[5] = Staphylococcus aureus, sc, 168 h, Subcutaneous Administration, read-out: ED50
[6] = Subcutaneous Administration, 10080 min

Structure (SMILES)	ED50 [1, 4] [mg/kg]	ED50 [1, 5] [mg/kg]	MIC [2] [µg/mL]	MIC [3] [µg/mL]	ED50 ([1]; Oral Administration, 10080 min) [mg/kg]	ED50 [1, 6] [mg/kg]	Minimum Inhibitory Concentration [2] [µg/mL]	Minimum Inhibitory Concentration [3] [µg/mL]
CC(=O)NC[C@H]1CN(c2ccc(C=C(C(C)=O)C(C)=O)cc2)C(=O)O1 [Example 28]	> 90	> 90	16 (≈ 46.5 µM)	> 128	–	–	–	–
CC/C(=C\C#N)c1ccc(N2C[C@H](CNC(C)=O)OC2=O)cc1 [Example 7]	3.1	2.1	1 (≈ 3.19 µM)	> 128	–	–	–	–
CC(=O)NC[C@H]1CN(c2ccc(/C(C)=C/C#N)c(C)c2)C(=O)O1 [Example 3]	6.4	5.1	2 (≈ 6.38 µM)	> 128	–	–	–	–
CC(=O)NC[C@H]1CN(c2ccc(/C(C)=C(/C)C#N)cc2)C(=O)O1 [Example 11]	–	–	8 (≈ 25.5 µM)	> 128	–	–	–	–
CC(=O)NC[C@H]1CN(c2ccc(/C=C/C=O)cc2)C(=O)O1 [Example 25, (l)-N-[3-[4-(E-2-Formylethenyl)phenyl]-2-oxooxazolidin-5-ylmethyl]acetamide]	> 80	> 80	0.5 (≈ 1.73 µM)	> 128	–	–	–	–
CCOC(=O)/C=C/c1ccc(N2C[C@H](CNC(C)=O)OC2=O)cc1 [Example 22, (l)-N-[3-[4-(E-2-Carboethoxyethenyl)-phenyl]-2-oxooxazolidin-5-ylmethyl]acetamide]	> 90	> 90	8 (≈ 24.1 µM)	> 128	–	–	–	–
CC/C(=C\c1ccc(N2C[C@H](CNC(C)=O)OC2=O)cc1)[N+](=O)[O-] [Example 29]	> 90	> 90	1 (≈ 3 µM)	> 128	–	–	–	–
CC(=O)NC[C@H]1CN(c2ccc(/C(C)=C\C#N)cc2)C(=O)O1 [Example 13]	–	–	8 (≈ 26.7 µM)	> 128	–	–	–	–
CC(=O)NC[C@H]1CN(c2ccc(/C(C)=C(\C)C#N)cc2)C(=O)O1 [Example 9]	3.8	2.5	2 (≈ 6.38 µM)	> 128	–	–	–	–
CC(=O)NC[C@H]1CN(c2ccc(/C=C/C(N)=O)cc2)C(=O)O1 [Example 62]	–	20.4	32 (≈ 105 µM)	> 128	–	–	–	–
COC(=O)/C=C/c1ccc(N2C[C@H](CNC(C)=O)OC2=O)cc1 [Example 59]	–	> 90	8 (≈ 25.1 µM)	> 128	–	–	–	–
CC(=O)NC[C@H]1CN(c2ccc(/C=C(\C)C#N)cc2)C(=O)O1 [Example 12]	2.9	1.9	1 (≈ 3.34 µM)	> 128	–	–	–	–
CSC(C#N)=Cc1ccc(N2CC(CNC(C)=O)OC2=O)cc1 (centres unmarked) [Example 21, (l)-N-[3-(4-(2-Cyano-2-methylsulfenylethenyl)phenyl]-2-oxooxazolidin-5-ylmethyl]acetamide]	–	–	–	–	> 90	11.8	4	> 128
CC(=O)NC[C@H]1CN(c2ccc(/C(=C/C#N)c3ccc(F)cc3)cc2)C(=O)O1 [Example 6]	–	–	> 128	> 128	–	–	–	–
CC(=O)/C=C/c1ccc(N2C[C@H](CNC(C)=O)OC2=O)cc1 [Example 60]	–	51.9	4 (≈ 13.2 µM)	> 128	–	–	–	–
CC(=O)NC[C@H]1CN(c2ccc(/C=C/C#N)cc2)C(=O)O1 [Example 2, (l)-N-[3-[4-(E-2-Cyanoethenyl)phenyl]-2-oxooxazolidin-5-ylmethyl]acetamide]	3.5	2.8	4 (≈ 14 µM)	> 128	–	–	–	–
CC(=O)NC[C@H]1CN(c2ccc(/C=C(\C)[N+](=O)[O-])cc2)C(=O)O1 [Example 20, (l)-N-[3-[4-(E-2-Nitro-2-methylethenyl)phenyl]-2-oxooxazolidin-5-ylmethyl]acetamide]	14.1	9.1	0.1 (≈ 0.313 µM)	> 128	–	–	–	–
CC(=O)NC[C@H]1CN(c2ccc(C=C(C#N)C#N)cc2)C(=O)O1 [Example 26]	> 90	> 90	16 (≈ 51.6 µM)	> 128	–	–	–	–
CC(=O)NC[C@H]1CN(c2ccc(/C=C/C(=O)N(C)C)cc2)C(=O)O1 [Example 61]	–	39.5	32 (≈ 96.6 µM)	> 128	–	–	–	–
CSC=Cc1ccc(N2CC(CNC(C)=O)OC2=O)cc1 (centres unmarked) [Example 24, (l)-N-[3-[4-(2-Methylsulfenylethenyl)-phenyl]-2-oxooxazolidin-5-ylmethyl]acetamide]	–	–	–	–	33.3	14.6	8	> 128
CC(=O)NC[C@H]1CN(c2ccc(/C=C/[N+](=O)[O-])cc2)C(=O)O1 [Example 19, (l)-N-[3-[4-(E-Nitroethenyl)phenyl]-2-oxooxazolidin-5-ylmethyl]acetamide]	> 90	> 90	8 (≈ 26.2 µM)	> 128	–	–	–	–
CCC/C(=C\C#N)c1ccc(N2C[C@H](CNC(C)=O)OC2=O)cc1 [Example 8]	> 90	> 90	2 (≈ 6.11 µM)	> 128	–	–	–	–
CCC/C(=C\c1ccc(N2C[C@H](CNC(C)=O)OC2=O)cc1)[N+](=O)[O-] [Example 30]	> 90	> 90	4 (≈ 11.5 µM)	> 128	–	–	–	–
CC(=O)NC[C@H]1CN(c2ccc(/C(C)=C/C#N)cc2)C(=O)O1 [Example 1, (l)-N-[3-[4-(E-1-Methyl-2-cyanoethenyl)phenyl]-2-oxooxazolidin-5-ylmethyl]acetamide]	1.3	0.8	1 (≈ 3.34 µM)	> 128	–	–	–	–
CC(=O)NC[C@H]1CN(c2ccc(/C(C)=C/C(N)=O)cc2)C(=O)O1 [Example 23, (l)-N-[3-[4-(E-1-Methyl-2-carbamidoethenyl)phenyl]-2-oxooxazolidin-5-ylmethyl]acetamide]	26.4	36.2	4 (≈ 12.6 µM)	> 128	–	–	–	–
CC(=O)NC[C@H]1CN(c2ccc(C3=CC(=O)CCC3)cc2)C(=O)O1 [Example 68]	2.4	1.7	0.5 (≈ 1.52 µM)	> 128	–	–	–	–
COC(=O)/C=C(\C)c1ccc(N2C[C@H](CNC(C)=O)OC2=O)cc1 [Example 58, (l)-N-[3-[4-(E-1-Methyl-2-carbomethoxyethenyl)phenyl]-2-oxooxazolidin-5-ylmethyl]acetamide]	–	46.2	2 (≈ 6.02 µM)	> 128	–	–	–	–
CC(=O)NCC1CN(c2ccc(/C(=C/C#N)c3ccccc3)cc2)C(=O)O1 (racemic) [Example 5]	> 90	> 90	32 (≈ 88.5 µM)	> 128	–	–	–	–
